Measurements: patent US20230242494A1, “MALONITRILE DERIVATIVES” (Hoffmann-La Roche Inc., priority 2020, published 2023)

What follows are compounds tested against T1, human cGAS (residues 161-522) (Homo sapiens, UniProt Q8N884) (assay: cGAS Activity Assay—Malachite Green). Conditions: recombinant purified human cGAS 25 nM; 80 μM ATP, 80 μM GTP, 100 nM ISD; 4 hour at RT; phosphate detection by Malachite Green.
T1 construct: human cGAS (residues 161-522); made in house
Assay type: biochemical
Method: Compounds were tested for cGAS inhibition in a coupled enzymatic assay based on Phosphate detection by Malachite Green. Final assay conditions were 20 mM TRIS pH 7.5 (Applichem), 5 mM MgCl2 (Sigma) and 0.01% BSA (Sigma) supplemented with 80 μM ATP (Sigma), 80 μM GTP (Sigma) and 100 nM Interferon Stimulating DNA (ISD) (Microsynth). Recombinantly expressed purified human cGAS (residues 161-522) was used at 25 nM.
All compounds were prepared as 10 mM stock solutions in DMSO and a 16 pt dilution series in DMSO with a dilution factor of 2.5 was prepared. 1 μL of DMSO dilution series was transferred to 32.3 μL reaction buffer, mixed by pipetting up/down, spun for 1 minute at 3000 rpm and was visually inspected for precipitation. 5 μL of 3-fold enzyme stock solution were transferred to an empty 384-well Black/Clear Flat Bottom Polystyrene NBS (Corning) rows 3-24. Rows 1-2 were filled with assay buffer. Plates were spun 10 seconds at 1000 rpm (164×g). 5 μL of compound intermediate dilution was added and mixed by pipetting up/down to rows 3-24. Rows 1-2 were filled with 3.1% DMSO assay buffer. Plates were spun 10 seconds at 1000 rpm (164×g). 5 μL 3-fold Nucleotide/DNA mix was added to all wells to start the reaction. Plates were spun 10 seconds at 1000 rpm (164×g) and incubated for 4 hour at room temperature (RT) in the dark. 5 μL 4 U/ml PPase (Sigma) were added to all wells. Plates spun 10 seconds at 1000 rpm (164×g). 10 μL BioMol green Solution (Enzo Life Sciences) was added to all wells. Plates spun 10 seconds at 1000 rpm (164×g) and incubated 30 minutes at RT in the dark. Absorbance data was collected 620 nm on an EnVision Multilable Reader (Perkin Elmer) and the following measurement settings were used: excitation filter photometric was 620 nm; excitation from the top; measurement height was 1 mm; number of flashes was 30; number of flashes integrated was 1.
All plates are checked for abnormalities and outliers in the Blank Control (no protein, row 1) and the Neutral Control (no compound, row 2) are excluded using the 3*SD rule. Data was normalized to 0 and 100% by Blank and Neutral Control and each curve was fitted and judged using the 4 parameter logistic equation to determine the IC50 for cGAS inhibition.
Table 13 provides IC50 values (μM) for cGAS inhibition obtained for particular examples of the present invention as measured by the above-described assay.

T1 sequence (Q8N884 161-522): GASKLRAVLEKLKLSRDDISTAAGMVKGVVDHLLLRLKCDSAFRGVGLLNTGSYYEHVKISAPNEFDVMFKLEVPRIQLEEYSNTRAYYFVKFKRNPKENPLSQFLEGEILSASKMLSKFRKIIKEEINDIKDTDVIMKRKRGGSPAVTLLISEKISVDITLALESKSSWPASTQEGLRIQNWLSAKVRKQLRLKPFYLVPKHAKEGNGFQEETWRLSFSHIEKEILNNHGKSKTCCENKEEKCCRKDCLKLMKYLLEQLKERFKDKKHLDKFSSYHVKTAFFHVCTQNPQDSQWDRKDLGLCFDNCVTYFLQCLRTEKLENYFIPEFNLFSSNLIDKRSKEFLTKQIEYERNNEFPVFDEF

| IC50 [nM] | Compound |
| --- | --- |
| 520 | COc1cnc(NC(=O)/C(C#N)=C(\O)c2cnoc2C)nc1CCc1ccccc1 [Example 129, (Z)-2-cyano-3-hydroxy-N-(5-methoxy-4-phenethylpyrimidin-2-yl)-3-(5-methylisoxazol-4-yl)acrylamide] |
| 330 | Cc1oncc1C(=O)N(c1ccc(C#N)cc1)S(=O)(=O)c1ccc(NC(=O)/C(C#N)=C(\O)c2cnoc2C)cc1 [Example 58, (Z)-N-((4-(2-cyano-3-hydroxy-3-(5-methylisoxazol-4-yl)acrylamido)phenyl)sulfonyl)-N-(4-cyanophenyl)-5-methylisoxazole-4-carboxamide] |
| 2180 | Cc1oncc1/C(O)=C(\C#N)C(=O)Nc1ncc(CCc2ccccc2)c(C(F)(F)F)n1 [Example 131, (Z)-2-cyano-3-hydroxy-3-(5-methylisoxazol-4-yl)-N-(5-phenethyl-4-(trifluoromethyl)pyrimidin-2-yl)acrylamide] |
| 790 | Cc1oncc1/C(O)=C(\C#N)C(=O)Nc1ccc(C#N)cc1 [Example 7, (Z)-2-cyano-N-(4-cyanophenyl)-3-hydroxy-3-(5-methylisoxazol-4-yl)acrylamide] |
| 150 | Cc1oncc1/C(O)=C(\C#N)C(=O)Nc1ncc(C(=O)Nc2ccccc2)cn1 [Example 105, 2-[[(Z)-2-cyano-3-hydroxy-3-(5-methylisoxazol-4-yl)prop-2-enoyl]amino]-N-phenyl-pyrimidin-5-carboxamide] |
| 6980 | Cc1oncc1/C(O)=C(\C#N)C(=O)Nc1cc(C(F)(F)F)cc(C(F)(F)F)c1 [Example 6, (Z)-N-(3,5-bis(trifluoromethyl)phenyl)-2-cyano-3-hydroxy-3-(5-methylisoxazol-4-yl)acrylamide] |
| 250 | Cc1oncc1/C(O)=C(\C#N)C(=O)Nc1ncc(C(F)(F)F)cc1F [Example 92] |
| 1340 | Cc1oncc1/C(O)=C(\C#N)C(=O)Nc1cccc(NC(=O)c2ccccc2)c1 [Example 71, (Z)-N-(3-(2-cyano-3-hydroxy-3-(5-methylisoxazol-4-yl)acrylamido)phenyl) benzamide] |
| 50 | Cc1oncc1/C(O)=C(\C#N)C(=O)Nc1ncc(C(=O)NCc2ccccc2)cn1 [Example 106, N-benzyl-2-[[(Z)-2-cyano-3-hydroxy-3-(5-methylisoxazol-4-yl)prop-2-enoyl]amino]pyrimidine-5-carboxamide] |
| 80 | CCOc1cnc(NC(=O)/C(C#N)=C(\O)c2cnoc2C)nc1 [Example 98, (Z)-2-cyano-N-(5-ethoxypyrimidin-2-yl)-3-hydroxy-3-(5-methylisoxazol-4-yl)acrylamide] |
| 180 | Cc1oncc1/C(O)=C(\C#N)C(=O)Nc1ccc(S(C)(=O)=O)cc1 [Example 115, (Z)-2-cyano-3-hydroxy-3-(5-methylisoxazol-4-yl)-N-(4-methylsulfonylphenyl) prop-2-enamide] |
| 300 | CCN(CC)C(=O)CNS(=O)(=O)c1ccc(NC(=O)/C(C#N)=C(\O)c2cnoc2C)cc1 [Example 53, (Z)-2-cyano-N-(4-(N-(2-(diethylamino)-2-oxoethyl)sulfamoyl)phenyl)-3-hydroxy-3-(5-methylisoxazol-4-yl)acrylamide] |
| 1290 | Cc1oncc1/C(O)=C(\C#N)C(=O)Nc1ccc(OC2COC2)cc1 [Example 41, (Z)-2-cyano-3-hydroxy-3-(5-methylisoxazol-4-yl)-N-[4-(oxetan-3-yloxy)phenyl]prop-2-enamide] |
| 2910 | Cc1oncc1/C(O)=C(\C#N)C(=O)Nc1ncc(OCC2CC2)c(-c2ccc(Cl)cc2)n1 [Example 125, (Z)-N-(4-(4-chlorophenyl)-5-(cyclopropylmethoxy)pyrimidin-2-yl)-2-cyano-3-hydroxy-3-(5-methylisoxazol-4-yl)acrylamide] |

Second part, the compound before the results:

| Compound | IC50 [nM] |
| --- | --- |
| Cc1oncc1/C(O)=C(\C#N)C(=O)Nc1ccc(S(=O)(=O)Nc2ccccc2)cc1 [Example 54, (Z)-2-cyano-3-hydroxy-3-(5-methylisoxazol-4-yl)-N-(4-(N-phenylsulfamoyl)phenyl) acrylamide] | 220 |
| COCCNS(=O)(=O)c1cnc(NC(=O)/C(C#N)=C(\O)c2cnoc2C)nc1 [Example 118, (Z)-2-cyano-3-hydroxy-N-(5-(N-(2-methoxy-ethyl)sulfamoyl)pyrimidin-2-yl)-3-(5-methylisoxazol-4-yl)acrylamide] | 40 |
| Cc1oncc1/C(O)=C(\C#N)C(=O)Nc1nccc(-c2ccccc2)n1 [Example 68, (Z)-2-cyano-3-hydroxy-3-(5-methylisoxazol-4-yl)-N-(4-phenylpyrimidin-2-yl)acrylamide] | 210 |
| CCS(=O)(=O)c1cnc(NC(=O)/C(C#N)=C(\O)c2cnoc2C)nc1 [Example 103, (Z)-2-cyano-N-(5-(ethylsulfonyl)pyrimidin-2-yl)-3-hydroxy-3-(5-methylisoxazol-4-yl)acrylamide] | 40 |
| Cc1cc(NC(=O)/C(C#N)=C(\O)c2cnoc2C)ccc1Oc1ccc(C(F)(F)F)cc1 [Example 19, (Z)-2-cyano-3-hydroxy-N-(3-methyl-4-(4-(trifluoromethyl)phenoxy)phenyl)-3-(5-methylisoxazol-4-yl)acrylamide] | 7420 |
| COc1cc(NC(=O)/C(C#N)=C(\O)c2cnoc2C)ccc1C(F)(F)F [Example 76, (Z)-2-cyano-3-hydroxy-N-(3-methoxy-4-(trifluoromethyl)phenyl)-3-(5-methylisoxazol-4-yl)acrylamide] | 4460 |
| Cc1oncc1/C(O)=C(\C#N)C(=O)Nc1ccc(Oc2ccccc2)cn1 [Example 83, (Z)-2-cyano-3-hydroxy-3-(5-methylisoxazol-4-yl)-N-(5-phenoxypyridin-2-yl)acrylamide] | 1020 |
| Cc1oncc1/C(O)=C(\C#N)C(=O)Nc1ncc(Br)cn1 [Example 107, (Z)-N-(5-bromopyrimidin-2-yl)-2-cyano-3-hydroxy-3-(5-methylisoxazol-4-yl)acrylamide] | 60 |
| Cc1oncc1/C(O)=C(\C#N)C(=O)Nc1ccc(S(=O)(=O)NC(C)(C)C)cn1 [Example 93, (Z)-N-(5-(N-(tert-butyl)sulfamoyl)pyridin-2-yl)-2-cyano-3-hydroxy-3-(5-methylisoxazol-4-yl)acrylamide] | 140 |
| Cc1oncc1/C(O)=C(\C#N)C(=O)Nc1ccc(CC(=O)O)cc1 [Example 145, 2-[4-[[(Z)-2-Cyano-3-hydroxy-3-(5-methylisoxazol-4-yl)prop-2-enoyl]amino]phenyl]acetic acid] | 470 |
| Cc1oncc1/C(O)=C(\C#N)C(=O)Nc1ncc(C(F)(F)F)cn1 [Example 94, (Z)-2-cyano-3-hydroxy-3-(5-methylisoxazol-4-yl)-N-(5-(trifluoromethyl)pyrimidin-2-yl)acrylamide] | 90 |
| Cc1oncc1/C(O)=C(\C#N)C(=O)Nc1cccc(S(=O)(=O)c2ccccc2)c1 [Example 49, (Z)-2-cyano-3-hydroxy-3-(5-methylisoxazol-4-yl)-N-(3-(phenylsulfonyl)phenyl) acrylamide] | 2500 |
| Cc1oncc1/C(O)=C(\C#N)C(=O)Nc1ccc(C(=O)Nc2ccccc2)cc1 [Example 67, (Z)-4-(2-cyano-3-hydroxy-3-(5-methylisoxazol-4-yl)acrylamido)-N-phenylbenzamide] | 420 |
| Cc1oncc1/C(O)=C(\C#N)C(=O)Nc1cccc(C(=O)Nc2ccccc2)c1 [Example 69, (Z)-3-(2-cyano-3-hydroxy-3-(5-methylisoxazol-4-yl)acrylamido)-N-phenylbenzamide] | 2000 |
| Cc1oncc1/C(O)=C(\C#N)C(=O)Nc1ccc(S(=O)(=O)N(C)C)cc1 [Example 1, (Z)-2-cyano-N-(4-(N,N-dimethylsulfamoyl)phenyl)-3-hydroxy-3-(5-methylisoxazol-4-yl)acrylamide] | 170 |
| COc1ccc(NC(=O)/C(C#N)=C(\O)c2cnoc2C)cc1C [Example 31, (Z)-2-cyano-3-hydroxy-N-(4-methoxy-3-methyl-phenyl)-3-(5-methylisoxazol-4-yl)prop-2-enamide] | 1300 |
| COc1ccc(NC(=O)/C(C#N)=C(\O)c2cnoc2C)nc1 [Example 37, (Z)-2-cyano-3-hydroxy-N-(5-methoxy-2-pyridyl)-3-(5-methylisoxazol-4-yl)prop-2-enamide] | 420 |
| Cc1cc(NC(=O)/C(C#N)=C(\O)c2cnoc2C)ccc1C(F)(F)F [Example 75, (Z)-2-cyano-3-hydroxy-N-(3-methyl-4-(trifluoromethyl)phenyl)-3-(5-methylisoxazol-4-yl)acrylamide] | 1900 |
